The numbers were not newly measured in patent US20160213656A1, “H[…] FORM” (Sovereign Pharmaceuticals, LLC, priority 2004, published 2016), which cites them from elsewhere.

With `CN1[C@@H]2CC[C@H]1C[C@@H](OC(=O)[C@H](CO)c1ccccc1)C2` [hyoscyamine], the “time for which therapeutic levels are maintained” value (once absorbed, blood) is given as “approximately 3.5 hours”. Besides, the “time within which the majority of hyoscyamine is excreted in the urine unchanged” value (urine, unchanged drug) was no more than 12 h.
